We go through one substance from EP0535804A1, “Peptide compounds” (HITACHI CHEMICAL CO., LTD., priority 1991, dated 1993).

Ends that are not written are not given here.

In experiment [1] the test system is human endothelin 1. The experiment in a line: Enzymeimmuno competitive inhibition assay of endothelin 1 binding to peptide resin. The conditions noted are these: 3 hours at room temperature. On the procedure:
After blocking those sites susceptible to nonspecific adsorption on the peptide resin obtained in (2) above with 0.2% skim milk solution, the peptide resin was immersed in 200 µl of human endothelin 1 solution (0.2 µg/ml) (prepared by dissolving in Dalbecco's phosphate buffered biological saline containing 0.1% skim milk and 0.1 % Tween 20). After allowing to react for 3 hours at room temperature while stirring gently, the resulting solution was used as sample solution (i).
Separate from the above, the wells of an ELISA microplate were coated overnight at 4°C with 200 µl of human endothelin 1 solution (1 wg/ml). […]
After washing the human endothelin 1 coated plate (ii) with washing buffer (Dalbecco's phosphate buffered biological saline containing 0.1% Tween), 50 µl of sample solution (i) was added followed immediately by the addition of 200 µl of anti-human endothelin 1 rabbit antibody solution (using Dalbecco's phosphate buffered biological saline containing 0.1% skim milk and 0.1% Tween as the dilution buffer). […] After similarly washing the plate and adding 200 µl of substrate solution (1 mg p-nitrophenyl phosphate/ml 1M diethanolamine buffer), the amount of p-nitrophenol released by the labelled enzyme present on the plate was determined by measuring the absorbance at 405 nm. […]

Experiment [2] relates to human endothelin 1. The experiment in a line: Binding activity of radioactive ligand (125I-human endothelin 1) to peptide resin. The conditions noted are these: 125I-human endothelin 1 solution 0.131 ng/ml, 2 hours at room temperature, gamma counter. On the procedure:
After blocking the sites susceptible to adsorption on the peptide resin obtained in (2) above with 0.2% skim milk solution, the peptide was suspended in 100 ml of ^1251-human endothelin 1 (specific activity: 74 TBq- /mmol) solution (0.131 ng/ml) (prepared by dissolving in Dalbecco's phosphate buffered biological saline containing 0.1 % skim milk and 0.1 % Tween) and allowed to react for 2 hours at room temperature. Following the binding reaction, the peptide resin was thoroughly washed with washing buffer (Dalbecco's phosphate buffered biological saline containing 0.1 % Tween), and the radioactivity bound to the peptide resin was measured with a gamma counter.

For KRGFPP, the inhibitory activity in the experiment with human endothelin 1 [1] (decrease of endothelin 1 antigen activity after binding to peptide resin pins, 0.2 µg/ml) came out at 21.1%. Besides, the “antigen activity of human endothelin 1 in said sample solution (i)” value in the experiment with human endothelin 1 [1] (remaining relative to before the binding reaction to the peptide resin pins, endothelin 1 solution 0.2 µg/ml, 200 µl) is listed as 78.9%. In addition, the “amount of human endothelin 1 bound to the peptide resin” value in the experiment with human endothelin 1 [2] was 5.18 pg.
